The values below come from patent publication US10435399B2, “HDAC6 inhibitory heterocyclic compound” (TAKEDA PHARMACEUTICAL COMPANY LIMITED, priority 2017, dated 2019).

Molecules are shown by their SMILES.

The target of this assay is T1, HDAC6 enzyme (Homo sapiens, UniProt Q9UBN7).
T1 construct: transducing full length HDAC6 gene into Sf-9 insect cells; GST; purchased SignalChem; host or cells: Sf-9 insect cells
T1 sequence (Q9UBN7 1-1215): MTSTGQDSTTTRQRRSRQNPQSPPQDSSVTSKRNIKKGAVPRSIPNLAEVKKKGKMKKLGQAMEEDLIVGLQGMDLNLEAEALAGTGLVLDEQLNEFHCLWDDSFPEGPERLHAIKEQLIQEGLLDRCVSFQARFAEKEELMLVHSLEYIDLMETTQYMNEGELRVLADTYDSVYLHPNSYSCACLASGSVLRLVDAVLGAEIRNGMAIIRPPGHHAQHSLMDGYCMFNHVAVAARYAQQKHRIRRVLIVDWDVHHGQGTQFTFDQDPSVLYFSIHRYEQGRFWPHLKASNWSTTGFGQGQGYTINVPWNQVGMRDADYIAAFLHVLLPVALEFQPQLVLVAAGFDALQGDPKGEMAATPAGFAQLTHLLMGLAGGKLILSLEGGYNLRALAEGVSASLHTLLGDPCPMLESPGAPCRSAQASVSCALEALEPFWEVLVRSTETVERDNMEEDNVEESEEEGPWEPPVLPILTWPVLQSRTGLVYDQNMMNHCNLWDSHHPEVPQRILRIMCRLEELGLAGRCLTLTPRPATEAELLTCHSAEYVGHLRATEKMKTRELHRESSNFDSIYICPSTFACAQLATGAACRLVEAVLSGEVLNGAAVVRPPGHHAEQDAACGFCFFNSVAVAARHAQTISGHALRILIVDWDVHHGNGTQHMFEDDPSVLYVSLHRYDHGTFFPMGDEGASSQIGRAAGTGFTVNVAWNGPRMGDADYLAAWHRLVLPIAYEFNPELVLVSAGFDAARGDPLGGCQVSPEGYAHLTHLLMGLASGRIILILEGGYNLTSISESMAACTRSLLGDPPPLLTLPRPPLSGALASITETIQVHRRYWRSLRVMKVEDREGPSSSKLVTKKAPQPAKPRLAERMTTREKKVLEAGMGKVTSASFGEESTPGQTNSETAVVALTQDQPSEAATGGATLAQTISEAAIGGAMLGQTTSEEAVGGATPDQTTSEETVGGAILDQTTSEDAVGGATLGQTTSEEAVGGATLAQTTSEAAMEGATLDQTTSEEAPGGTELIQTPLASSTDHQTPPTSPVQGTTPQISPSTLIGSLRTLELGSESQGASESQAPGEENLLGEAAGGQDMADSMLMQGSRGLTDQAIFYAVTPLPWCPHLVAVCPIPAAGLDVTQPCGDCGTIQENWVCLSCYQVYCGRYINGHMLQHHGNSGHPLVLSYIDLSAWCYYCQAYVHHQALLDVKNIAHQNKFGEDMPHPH
As to the kind of experiment: HDAC6 enzyme inhibitory activity (HDAC-Glo I/II Assay kit). It counts as biochemical. As to conditions: 10 μM; wells without enzyme = 100% inhibition; read-out: HDAC6 inhibitory rate (%) (10 μM). Summed up: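 Full-length human HDAC6 (GST-purified, Sf-9 expressed) preincubated with compound 60 min at room temperature in Tris-HCl pH 7.5 buffer with MgCl2, KCl, NaCl, glutathione, Tween-20. HDAC-Glo I/II substrate-developer then added, 20 min room temperature, luminescence read. Inhibition relative to no-enzyme wells as 100%.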
For the molecule `CC(C)(C(=O)N[C@@H]1CCOC[C@H]1N1Cc2c(F)cc(-c3nnc(C(F)F)o3)cc2C1=O)C(F)(F)F` [Example 175, N-((3S,4R)-3-(6-(5-(difluoromethyl)-1,3,4-oxadiazol-2-yl)-4-fluoro-1-oxo-1,3-dihydro-2H-isoindol-2-yl)tetrahydro-2H-pyran-4-yl)-3,3,3-trifluoro-2,2-dimethylpropanamide], the inhibition at 10 µM is 100%. In the case of `O=C1c2cc(-c3nnc(C(F)F)o3)cc(F)c2CN1[C@@H]1COCC[C@H]1NC(=O)C1(C(F)(F)F)CC1` [Example 176, N-((3S,4R)-3-(6-(5-(difluoromethyl)-1,3,4-oxadiazol-2-yl)-4-fluoro-1-oxo-1,3-dihydro-2H-isoindol-2-yl)tetrahydro-2H-pyran-4-yl)-1-(trifluoromethyl)cyclopropanecarboxamide] it was 100%; in that of `O=C1CCCN1[C@@H]1CCCC[C@H]1N1Cc2ncc(-c3nnc(C(F)F)o3)cc2C1=O` [Example 177, 3-(5-(difluoromethyl)-1,3,4-oxadiazol-2-yl)-6-((1R,2R)-2-(2-oxopyrrolidin-1-yl)cyclohexyl)-6,7-dihydro-5H-pyrrolo[3,4-b]pyridin-5-one], 97%; in that of `CC1(C)OB(c2ccccc2N2Cc3ccc(-c4nnc(C(F)F)o4)cc3C2=O)OC1(C)C` [Example 178, 6-(5-(difluoromethyl)-1,3,4-oxadiazol-2-yl)-2-(2-(4,4,5,5-tetramethyl-1,3,2-dioxaborolan-2-yl)phenyl)isoindolin-1-one], 41%. Regarding `O=C1c2ccccc2CN1[C@@H]1CCCC[C@H]1N1Cc2ncc(-c3nnc(C(F)F)o3)cc2C1=O` [Example 179, 3-(5-(difluoromethyl)-1,3,4-oxadiazol-2-yl)-6-((1R,2R)-2-(1-oxo-1,3-dihydro-2H-isoindol-2-yl)cyclohexyl)-6,7-dihydro-5H-pyrrolo[3,4-b]pyridin-5-one], the inhibition at 10 µM amounted to 100%. On to `O=C(N[C@@H]1CCOC[C@H]1N1Cc2c(F)cc(-c3nnc(C(F)F)o3)cc2C1=O)c1ccccc1Cl` [Example 180, 2-chloro-N-((3S,4R)-3-(6-(5-(difluoromethyl)-1,3,4-oxadiazol-2-yl)-4-fluoro-1-oxo-1,3-dihydro-2H-isoindol-2-yl)tetrahydro-2H-pyran-4-yl)benzamide], for which the inhibition at 10 µM is 100%. Under `O=C(N[C@@H]1CCOC[C@H]1N1Cc2c(F)cc(-c3nnc(C(F)F)o3)cc2C1=O)c1cccc(Cl)c1` [Example 181, 3-chloro-N-((3S,4R)-3-(6-(5-(difluoromethyl)-1,3,4-oxadiazol-2-yl)-4-fluoro-1-oxo-1,3-dihydro-2H-isoindol-2-yl)tetrahydro-2H-pyran-4-yl)benzamide] stands 97%; under `CCC(=O)N[C@@H]1CCCC[C@H]1N1Cc2c(F)cc(-c3nnc(C(F)F)o3)cc2C1=O` [Example 182, N-((1R,2R)-2-(6-(5-(difluoromethyl)-1,3,4-oxadiazol-2-yl)-4-fluoro-1-oxo-1,3-dihydro-2H-isoindol-2-yl)cyclohexyl)propanamide], 99%. In the case of `O=C1c2cc(-c3nnc(C(F)F)o3)cc(F)c2CN1[C@@H]1CCCC[C@H]1NC(=O)C(F)(F)F` [Example 183, N-((1R,2R)-2-(6-(5-(difluoromethyl)-1,3,4-oxadiazol-2-yl)-4-fluoro-1-oxo-1,3-dihydro-2H-isoindol-2-yl)cyclohexyl)-2,2,2-trifluoroacetamide], the inhibition at 10 µM worked out at 99%. In the case of `CC(F)(F)C(=O)N[C@@H]1CCCC[C@H]1N1Cc2c(F)cc(-c3nnc(C(F)F)o3)cc2C1=O` [Example 184, N-((1R,2R)-2-(6-(5-(difluoromethyl)-1,3,4-oxadiazol-2-yl)-4-fluoro-1-oxo-1,3-dihydro-2H-isoindol-2-yl)cyclohexyl)-2,2-difluoropropanamide] it was 102%; in that of `O=C(N[C@@H]1CCCC[C@H]1N1Cc2c(F)cc(-c3nnc(C(F)F)o3)cc2C1=O)[C@@H]1CC1(F)F` [Example 185, (1S)-N-((1R,2R)-2-(6-(5-(difluoromethyl)-1,3,4-oxadiazol-2-yl)-4-fluoro-1-oxo-1,3-dihydro-2H-isoindol-2-yl)cyclohexyl)-2,2-difluorocyclopropanecarboxamide], 100%. `O=C1c2cc(-c3nnc(C(F)F)o3)cnc2CN1[C@@H]1CCCC[C@H]1N1C(=O)c2ccccc2C1=O` [Example 186, 2-((1R,2R)-2-(3-(5-(difluoromethyl)-1,3,4-oxadiazol-2-yl)-5-oxo-5,7-dihydro-6H-pyrrolo[3,4-b]pyridin-6-yl)cyclohexyl)-H-isoindole-1,3(2H)-dione]: the inhibition at 10 µM was determined as 101%. In the case of `O=C1c2cc(-c3nnc(C(F)F)o3)ccc2CN1C1(C(=O)NCC(F)(F)F)CC1` [Example 187, 1-(6-(5-(difluoromethyl)-1,3,4-oxadiazol-2-yl)-1-oxo-1,3-dihydro-2H-isoindol-2-yl)-N-(2,2,2-trifluoroethyl)cyclopropanecarboxamide], the inhibition at 10 µM came out at 92%. Turning to `Cn1cc(-c2ccccc2)c(N2Cc3ccc(-c4nnc(C(F)F)o4)cc3C2=O)n1` [Example 188, 6-(5-(difluoromethyl)-1,3,4-oxadiazol-2-yl)-2-(1-methyl-4-phenyl-1H-pyrazol-3-yl)isoindolin-1-one], the inhibition at 10 µM worked out at 98%. Turning to `O=C(N[C@@H]1COCC[C@H]1N1Cc2c(F)cc(-c3nnc(C(F)F)o3)cc2C1=O)c1ccccc1Cl` [Example 189, 2-chloro-N-((3S,4R)-4-(6-(5-(difluoromethyl)-1,3,4-oxadiazol-2-yl)-4-fluoro-1-oxo-1,3-dihydro-2H-isoindol-2-yl)tetrahydro-2H-pyran-3-yl)benzamide], the inhibition at 10 µM was 100%.

Regarding `O=C(N[C@@H]1COCC[C@H]1N1Cc2c(F)cc(-c3nnc(C(F)F)o3)cc2C1=O)c1cccc(Cl)c1` [Example 190, 3-chloro-N-((3S,4R)-4-(6-(5-(difluoromethyl)-1,3,4-oxadiazol-2-yl)-4-fluoro-1-oxo-1,3-dihydro-2H-isoindol-2-yl)tetrahydro-2H-pyran-3-yl)benzamide], the inhibition at 10 µM amounted to 100%. With `CCC(=O)N[C@@H]1COCC[C@H]1N1Cc2c(F)cc(-c3nnc(C(F)F)o3)cc2C1=O` [Example 191, N-((3S,4R)-4-(6-(5-(difluoromethyl)-1,3,4-oxadiazol-2-yl)-4-fluoro-1-oxo-1,3-dihydro-2H-isoindol-2-yl)tetrahydro-2H-pyran-3-yl)propanamide], the inhibition at 10 µM was 101%. As to `CC(C)(C)OC(=O)N1CC[C@@H](N2Cc3ncc(-c4nnc(C(F)F)o4)cc3C2=O)[C@@H](c2ccccc2)C1` [Example 192, tert-butyl (3S,4R)-4-(3-(5-(difluoromethyl)-1,3,4-oxadiazol-2-yl)-5-oxo-5,7-dihydro-6H-pyrrolo[3,4-b]pyridin-6-yl)-3-phenylpiperidine-1-carboxylate], the inhibition at 10 µM turned out to be 100%. For `O=C1c2cc(-c3nnc(C(F)F)o3)cnc2CN1[C@@H]1CCNC[C@@H]1c1ccccc1` [Example 193, 3-(5-(difluoromethyl)-1,3,4-oxadiazol-2-yl)-6-((3S,4R)-3-phenylpiperidin-4-yl)-6,7-dihydro-5H-pyrrolo[3,4-b]pyridin-5-one], the inhibition at 10 µM turned out to be 102%.

In the case of `COC(=O)N1CC[C@@H](N2Cc3ncc(-c4nnc(C(F)F)o4)cc3C2=O)[C@@H](c2ccccc2)C1` [Example 194, methyl (3S,4R)-4-(3-(5-(difluoromethyl)-1,3,4-oxadiazol-2-yl)-5-oxo-5,7-dihydro-6H-pyrrolo[3,4-b]pyridin-6-yl)-3-phenylpiperidine-carboxylate], the inhibition at 10 µM was 100%. Consider `CCC(F)(F)C(=O)N[C@@H]1CCCC[C@H]1N1Cc2ncc(-c3nnc(C(F)F)o3)cc2C1=O` [Example 195, N-((1R,2R)-2-(3-(5-(difluoromethyl)-1,3,4-oxadiazol-2-yl)-5-oxo-5,7-dihydro-6H-pyrrolo[3,4-b]pyridin-6-yl)cyclohexyl)-2,2-difluorobutanamide], for which the inhibition at 10 µM is 100%.
